Data taken from PubChem BioAssay (NCI).
Where “and” joins values, the source holds several entries; their conditions need not be identical. Identical values can stand only once.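 Compound exposure: 48 hours, 5 concentrations, 96-well plates. Abbreviation: GI50, concentration required for 50% inhibition of growth. TGI: concentration producing complete growth inhibition.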 Where a SMILES comes first, the peptide text is derived from it. [ ]: non-standard residue; d: D form. The star is where a group is joined. ξ: configuration not given here. NMeN = CN[C@@H](CC(N)=O)C(=O)O; NMeV = CN[C@H](C(=O)O)C(C)C; ξNMeV = CNC(C(=O)O)C(C)C; Boc = CC(C)(C)OC(=O)*; ξNMeA = CNC(C)C(=O)O

Assays:
Assay in all cases: NCI tumour cell line growth inhibition, 48 h
[1] = test system: M14 melanoma
[2] = test system: OVCAR-5 ovarian
[3] = test system: SNB-75 CNS
[4] = test system: MCF7 breast
[5] = test system: COLO 205 colon
[6] = test system: HOP-62 NSCLC
[7] = test system: OVCAR-3 ovarian
[8] = test system: U251 CNS
[9] = test system: OVCAR-8 ovarian
[10] = test system: MOLT-4 leukemia

SMILES	TGI [1] [µM]	TGI [2] [µM]	TGI [3] [µM]	TGI [4] [µM]	TGI [5] [µM]	TGI [6]	TGI [7] [µM]	TGI [8]	TGI [9] [µM]	TGI [10]	GI50 [1]	GI50 [2] [µM]	GI50 [5] [µM]	GI50 [6]	GI50 [10] [µM]	GI50 [7] [µM]	GI50 [8]	GI50 [3]	GI50 [4] [µM]	GI50 [9] [µM]
COc1cc(C(c2cc3c(cc2O)OCO3)N2CCCCC2)cc(OC)c1OC (stereo unspecified)	18.5	32.2	33.5	29.3	26.6	> 70.9 µM	26.9	30.2 µM	28.1	–	–	–	–	–	–	–	–	–	–	–
CN1CCCCCC(=N\O)/C(=N/O)CCCCC1	> 100	> 100	> 100	> 100	–	> 100 µM	> 100	> 100 µM	> 100	> 100 µM	–	–	–	–	–	–	–	–	–	–
COC(=O)C(C)N(C)C(=O)[C@H](CC(N)=O)N(C)C(=O)[C@@H]1CCCN1C(=O)[C@H](C(C)C)N(C)C(=O)C(C(C)C)N(C)C(=O)[C@@H](NC(=O)OC(C)(C)C)C(C)C (stereo partly specified) (Boc-V[ξNMeV][NMeV]P[NMeN][ξNMeA]-OMe)	> 100	> 100	> 100	> 50	> 100	> 100 µM	> 100	> 100 µM	> 100	38.9 µM and > 100 µM	> 100 µM	> 100	34.9	> 100 µM	> 100	> 100	> 100 µM	–	–	–
NC(=O)c1ccc2c(-c3ccnc(NCCCO)n3)c(-c3ccc(F)cc3)nn2c1	> 25	> 25	> 25	> 25	> 25	> 25 µM	> 25	> 25 µM	> 25	> 25 µM	> 25 µM	> 25	> 20.6	> 25 µM	> 25	18.6	> 25 µM	> 10 µM	> 16.9	> 25
O=c1[nH]ccc2nc(N3CCC(O)CC3)nc(Nc3cccc(C(F)(F)F)c3)c12	8.23	94.3	82.1	12.7	14.5	18.8 µM	3.98	> 100 µM	40.6	7.75 µM	1.55 µM	28.3	3.08	4.4 µM	2.24	1.34	6.15 µM	5.76 µM	2.84	3.29
CCCN1CCN(c2ccc3nc(-c4ccc5nc(-c6cc(OC)ccc6OC)[nH]c5c4)[nH]c3c2)CC1	3.31	34.2	26.2	3.82	4.83	–	3.39	3.1 µM	–	4.31 µM	1.78 µM	17.8	2.17	–	2.09	1.84	1.69 µM	12.8 µM	1.8	–
O=C(Nc1ccc(F)cc1F)c1cc(Br)ccc1O	6.99	> 100	3.73	> 100	13.8	12.7 µM	> 100	> 100 µM	> 100	12.2 µM	1.91 µM	3.83	3.75	2.69 µM	2.96	2.89	2.78 µM	0.558 µM	2.56	3.01
Cc1cc2cc3c(C)cc(=O)oc3c(C)c2o1	> 100	> 100	> 100	> 100	> 100	> 100 µM	> 100	> 100 µM	> 100	> 100 µM	–	–	–	–	–	–	–	–	–	–
O=C(CC12CC3CC(CC(C3)C1)C2)NCCOCCOCCOCCNC(=O)c1cc2c(o1)C(=O)c1ccccc1C2=O	0.491	3.17	3.51	2.73	3.33	3.33 µM	1.79	3.09 µM	10.6	6.22 µM	0.222 µM	1.75	1.63	1.89 µM	2.02	0.395	1.53 µM	2.02 µM	0.808	1.15
Cc1cccc(Cl)c1NC(=O)/C=C/c1ccccc1	> 100	> 100	87.1	> 100	> 100	> 100 µM	> 100	> 100 µM	> 100	> 100 µM	–	–	–	–	–	–	–	–	–	–
O=[N+]([O-])c1ccc(N=Nc2c(O)ccc3ccccc23)cc1	> 100	> 100	> 100	> 100	> 100	37.4 µM and > 100 µM	> 100	67 µM and > 100 µM	> 100	> 100 µM	43.6 µM and > 100 µM	–	–	14.5 µM and > 100 µM	–	–	22.5 µM and > 100 µM	39.3 µM and > 100 µM	–	> 100
CC(C)CNc1nc(-c2ccccc2)nc2ccccc12	26.4	32.2	–	44.4	40.3	31.5 µM	31	24.8 µM	31.8	38.1 µM	13.5 µM	17.4	14.8	17.7 µM	13.7	15.7	12.2 µM	–	18.6	15
NC(=N\N=C/c1cccc([N+](=O)[O-])c1)/C(N)=N\N=C/c1cccc([N+](=O)[O-])c1	> 100	> 100	> 100	> 100	> 100	> 100 µM	> 100	> 100 µM	> 100	> 100 µM	> 100 µM	> 100	> 100	> 100 µM	> 100	> 100	> 100 µM	> 100 µM	> 100	> 100
c1cc(OCCN2CCCCC2)ccc1CNc1ccc2nc(CCC3CCCCC3)[nH]c2c1	3.38	5.64	4.08	4.26	3.31	3.4 µM	3.5	2.94 µM	6.82	6.2 µM	1.72 µM	2.04	1.76	1.79 µM	2.01	1.73	1.49 µM	1.62 µM	1.7	2.42
Cc1cc(N2CCN(c3ccnc4cc(Cl)ccc34)CC2)nc(NC2CCCCC2)n1	3.36	–	3.95	3.47	3.34	4.61 µM	3.9	3.37 µM	6.35	5.62 µM	1.7 µM	–	1.65	2.02 µM	2.38	1.9	1.72 µM	1.79 µM	1.57	2.39
COc1ccc(-c2ccc(/C=N/n3c(COc4ccc(Cl)cc4Cl)nn(CN4CCN(C)CC4)c3=S)o2)c([N+](=O)[O-])c1	53.9	97.1	> 100	29.8	> 100	79.5 µM	25	42.8 µM	53.5	–	19.8 µM	24.2	29.3	29.6 µM	–	7.51	16.9 µM	67.5 µM	10	18.9
COc1ccc(CNc2c3ccccc3nc3ccc(OC)cc23)cc1	4.26	9.52	8.24	5.71	3.99	15.4 µM	8.68	11.2 µM	13.5	10.3 µM	1.9 µM	2.64	1.76	3.38 µM	2.75	2.61	3.18 µM	2.19 µM	2.11	3.04
Cc1ccc(-c2nc(N)nc3c2nnn3Cc2cccc(CO[C@H]3CCOC3)n2)o1	> 100	> 100	> 100	> 100	–	> 100 µM	> 100	> 100 µM	> 100	> 100 µM	> 100 µM	> 100	–	> 100 µM	98.4	> 100	> 100 µM	41.5 µM	> 100	> 100
O=S(=O)(c1ccc(N=C2NN=C(c3c[nH]c4ccccc34)CS2)cc1)N1CCOCC1	> 100	> 100	> 100	> 100	> 100	–	> 100	> 100 µM	> 100	40.9 µM	–	49.1	14.7	–	3.93	18.8	8.48 µM	21.6 µM	4.31	9.61
C=CCC(C(=O)O)c1ccccc1 (stereo unspecified)	> 100	> 100	> 100	> 100	> 100	> 100 µM	> 100	> 100 µM	> 100	> 100 µM	–	–	–	–	–	–	–	–	–	–
CC[Si](CC)(CC)OC[C@]1([C@@H]2COC(C)(C)O2)CC=CC(=O)O1	> 100	> 100	–	> 100	> 100	> 100 µM	> 100	> 100 µM	91.8	> 100 µM	33 µM	> 100	40.4	57.8 µM	31.7	32.6	42.2 µM	–	43.6	26.4
COc1cc2cc(C(=O)Nc3cc(N)c4ccccc4c3CCCl)[nH]c2c(OC)c1OC	–	2.13	0.202	0.374	0.254	0.165 µM	–	–	0.841	–	–	0.0533	0.0694	0.0244 µM	0.0132	0.0262	–	0.0656 µM	0.00869	0.0191
COC(=O)c1c2c(c(C)[n+]([O-])c1C)C(=O)C=C(NCc1ccc(OC)cc1)C2=O	4.3	6.13	9.53	2.14	2.45	7.84 µM	2.29	5.48 µM	4.48	5.3 µM	1.92 µM	2.3	0.831	2.48 µM	1.55	0.795	2.05 µM	5.12 µM	0.72	1.11
C=CCN1C=CC(=O)[C@H](O[Si](C)(C)C(C)(C)C)[C@@H]1/C=C/c1ccccc1	27.5	31.9	22.7	21.9	16.2	28.9 µM	27.8	25.2 µM	> 100	28.8 µM	13.2 µM	17.5	4.39	15.1 µM	10.7	14	12.4 µM	10.5 µM	8.77	30.6
C=CCN(CC=C)C(=O)c1cc(C)nc2c1c(=O)n(-c1ccccc1)c(=O)n2CC(O)CN1CCN(c2ncccn2)CC1 (stereo unspecified)	> 100	> 100	> 100	> 100	> 100	> 100 µM	> 100	> 100 µM	–	> 100 µM	> 100 µM	> 100	> 100	21.1 µM	> 100	> 100	> 100 µM	29 µM	33.3	–
Cc1cc(N2CCCC2)nc(NC2CCCC(Nc3ccnc4cc(Cl)ccc34)C2)n1 (stereo unspecified)	2.51	4.26	–	2.63	3.35	2.95 µM	4.21	2.86 µM	4.39	3.13 µM	1.14 µM	1.45	1.46	1.32 µM	0.478	1.67	1.48 µM	–	0.563	1.92
O=C([CH-]C(=O)c1ccccc1)c1ccccc1.O=C([CH-]C(=O)c1ccccc1)c1ccccc1.O=C([CH-]C(=O)c1ccccc1)c1ccccc1.[OH3+].[Y+3]	22	66.1	8.1	–	30.9	22.5 µM	17.3	24.2 µM	21.8	20.5 µM	9.36 µM	16.9	13.2	4.5 µM	2.96	5	2.93 µM	3.25 µM	–	3.5
